The source made the active and inactive calls. The rule behind the calls is not given here.
Experiments:
[1] = biological target: Gamma-secretase; assay: Modulation of gamma-secretase-mediated cleavage of human APP Swedish and London mutation expressed in HEK293 cells assessed as inhibition of amyloid beta42 production after 5 hrs by sandwich immunoassay; format: cell-based
[2] = biological target: T1, Gamma-secretase (Homo sapiens) (UniProt Q96BI3+Q9NZ42+Q8WW43+P49768+Q92542+P49810); assay: Modulation of gamma-secretase-mediated cleavage of human APP Swedish and London mutation expressed in HEK293 cells assessed as reduction of total amyloid beta/amyloid beta42 ratio after 5 hrs by sandwich immunoassay; format: cell-based
[3] = biological target: Gamma-secretase; assay: Modulation of gamma-secretase-mediated cleavage of human APP Swedish and London mutation expressed in HEK293 cells assessed as reduction of total amyloid beta level after 5 hrs by sandwich immunoassay; format: cell-based
[4] = biological target: Gamma-secretase; assay: Modulation of gamma-secretase-mediated cleavage of human APP Swedish and London mutation expressed in HEK293 cells assessed as inhibition of amyloid beta40 production after 5 hrs by sandwich immunoassay; format: cell-based
[5] = Chemical stability of the compound in aqueous 0.1 N HCl assessed as decomposition to corresponding acetophenone after 3 hrs; format: physicochemical; settings: buffer
[6] = Chemical stability of the compound under neutral conditions; format: physicochemical
[7] = Dissociation constant, pKa of the compound; format: physicochemical
[8] = Aqueous solubility of the compound at pH 3.5; format: physicochemical; settings: aqueous medium
[9] = Lipophilicity, log D of the compound at pH 7.4; format: physicochemical; settings: buffer
[10] = system: Rattus norvegicus; assay: Antialzheimer activity in po dosed CD rat assessed as reduction in amyloid beta42 level in CSF after 3 hrs by alphaLISA analysis relative to total amyloid beta level; format: functional, organism-based
[11] = system: Rattus norvegicus; assay: Antialzheimer activity in po dosed CD rat assessed as reduction in amyloid beta42 level in cortex after 3 hrs by alphaLISA analysis relative to total amyloid beta level; format: functional, organism-based
[12] = system: Rattus norvegicus; assay: Antialzheimer activity in CD rat assessed as reduction in amyloid beta42 level in cortex administered as po for 6 days by alphaLISA analysis relative to total amyloid beta40 level; format: functional, organism-based
[13] = biological target: T1, Gamma-secretase (Homo sapiens); assay: Modulation of gamma-secretase-mediated cleavage of human APP Swedish and London mutation expressed in HEK293 cells assessed as increase in amyloid beta38 production at 10 uM by SELDI-MS analysis; format: cell-based
[14] = system: Rattus norvegicus; assay: Antialzheimer activity in CD rat assessed as reduction in amyloid beta42 level in plasma administered as po for 6 days by alphaLISA analysis relative to total amyloid beta40 level; format: functional, organism-based
[15] = biological target: T1, Gamma-secretase (Homo sapiens); assay: Modulation of gamma-secretase-mediated cleavage of human APP Swedish and London mutation expressed in HEK293 cells assessed as inhibition of amyloid beta40 production at 10 uM by SELDI-MS analysis; format: cell-based
[16] = system: Rattus norvegicus; assay: Antialzheimer activity in po dosed CD rat assessed as reduction in amyloid beta42 level in CSF after 3 hrs by alphaLISA analysis relative to amyloid beta40 level; format: functional, organism-based
[17] = system: Rattus norvegicus; assay: Antialzheimer activity in CD rat assessed as reduction in amyloid beta42 level in CSF administered as po for 6 days by alphaLISA analysis relative to total amyloid beta40 level; format: functional, organism-based
[18] = system: Rattus norvegicus; assay: Antialzheimer activity in po dosed CD rat assessed as reduction in amyloid beta42 level in plasma after 3 hrs by alphaLISA analysis relative to amyloid beta40 level; format: functional, organism-based
[19] = system: Rattus norvegicus; assay: Antialzheimer activity in CD rat assessed as reduction in amyloid beta42 level in plasma administered as po for 6 days by alphaLISA analysis relative to total amyloid beta level; format: functional, organism-based
[20] = biological target: T1, Gamma-secretase (Homo sapiens); assay: Modulation of gamma-secretase-mediated cleavage of human APP Swedish and London mutation expressed in HEK293 cells assessed as inhibition of amyloid beta42 production at 10 uM by SELDI-MS analysis; format: cell-based
[21] = system: Rattus norvegicus; assay: Antialzheimer activity in CD rat assessed as reduction in amyloid beta42 level in CSF administered as po for 6 days by alphaLISA analysis relative to total amyloid beta level; format: functional, organism-based
[22] = system: Rattus norvegicus; assay: Antialzheimer activity in po dosed CD rat assessed as reduction in amyloid beta42 level in cortex after 3 hrs by alphaLISA analysis relative to amyloid beta40 level; format: functional, organism-based
[23] = biological target: T1, Gamma-secretase (Homo sapiens); assay: Modulation of gamma-secretase-mediated cleavage of human APP Swedish and London mutation expressed in HEK293 cells assessed as inhibition of amyloid beta39 production at 10 uM by SELDI-MS analysis; format: cell-based
[24] = system: Rattus norvegicus; assay: Antialzheimer activity in po dosed CD rat assessed as reduction in amyloid beta42 level in plasma after 3 hrs by alphaLISA analysis relative to total amyloid beta level; format: functional, organism-based
[25] = biological target: T1, Gamma-secretase (Homo sapiens); assay: Modulation of gamma-secretase-mediated cleavage of human APP Swedish and London mutation expressed in HEK293 cells assessed as increase in amyloid beta37 production at 10 uM by SELDI-MS analysis; format: cell-based
[26] = system: Rattus norvegicus; assay: Antialzheimer activity in CD rat assessed as reduction in amyloid beta42 level in cortex administered as po for 6 days by alphaLISA analysis relative to total amyloid beta level; format: functional, organism-based
[27] = Chemical stability of the compound in aqueous 0.1 N HCl/MeOH (1:1) assessed as deterioration of enantiomaric excess after 7 days; format: physicochemical; settings: buffer, 168 h
[28] = system: Rattus norvegicus; assay: Antialzheimer activity in rat assessed as reduction in amyloid beta42 level in cortex at 30 mg/kg, po; format: functional; set-up: scale not given: the % may be the effect or the level left
[29] = species on record: Canis familiaris; assay: Cardiotoxicity in dog assessed as effect on electrocardiographic QTc interval at compound concentration required for pharmacological effect; format: toxicity, organism-based, Canis lupus familiaris; settings: in vivo
[30] = system: Rattus norvegicus; assay: Antialzheimer activity in rat assessed as reduction in amyloid beta42 level in CSF at 30 mg/kg, po; format: functional; set-up: scale not given: the % may be the effect or the level left
[31] = Permeability from apical to basolateral side of human Caco2 cells; format: ADME, cell-based; settings: Caco-2, read-out: permeability
[32] = biological target: Voltage-gated inwardly rectifying potassium channel KCNH2 (Homo sapiens, UniProt Q12809); assay: Inhibition of human ERG by cell based voltage clamp assay
Sequence of Voltage-gated inwardly rectifying potassium channel KCNH2 (Q12809 whole entry): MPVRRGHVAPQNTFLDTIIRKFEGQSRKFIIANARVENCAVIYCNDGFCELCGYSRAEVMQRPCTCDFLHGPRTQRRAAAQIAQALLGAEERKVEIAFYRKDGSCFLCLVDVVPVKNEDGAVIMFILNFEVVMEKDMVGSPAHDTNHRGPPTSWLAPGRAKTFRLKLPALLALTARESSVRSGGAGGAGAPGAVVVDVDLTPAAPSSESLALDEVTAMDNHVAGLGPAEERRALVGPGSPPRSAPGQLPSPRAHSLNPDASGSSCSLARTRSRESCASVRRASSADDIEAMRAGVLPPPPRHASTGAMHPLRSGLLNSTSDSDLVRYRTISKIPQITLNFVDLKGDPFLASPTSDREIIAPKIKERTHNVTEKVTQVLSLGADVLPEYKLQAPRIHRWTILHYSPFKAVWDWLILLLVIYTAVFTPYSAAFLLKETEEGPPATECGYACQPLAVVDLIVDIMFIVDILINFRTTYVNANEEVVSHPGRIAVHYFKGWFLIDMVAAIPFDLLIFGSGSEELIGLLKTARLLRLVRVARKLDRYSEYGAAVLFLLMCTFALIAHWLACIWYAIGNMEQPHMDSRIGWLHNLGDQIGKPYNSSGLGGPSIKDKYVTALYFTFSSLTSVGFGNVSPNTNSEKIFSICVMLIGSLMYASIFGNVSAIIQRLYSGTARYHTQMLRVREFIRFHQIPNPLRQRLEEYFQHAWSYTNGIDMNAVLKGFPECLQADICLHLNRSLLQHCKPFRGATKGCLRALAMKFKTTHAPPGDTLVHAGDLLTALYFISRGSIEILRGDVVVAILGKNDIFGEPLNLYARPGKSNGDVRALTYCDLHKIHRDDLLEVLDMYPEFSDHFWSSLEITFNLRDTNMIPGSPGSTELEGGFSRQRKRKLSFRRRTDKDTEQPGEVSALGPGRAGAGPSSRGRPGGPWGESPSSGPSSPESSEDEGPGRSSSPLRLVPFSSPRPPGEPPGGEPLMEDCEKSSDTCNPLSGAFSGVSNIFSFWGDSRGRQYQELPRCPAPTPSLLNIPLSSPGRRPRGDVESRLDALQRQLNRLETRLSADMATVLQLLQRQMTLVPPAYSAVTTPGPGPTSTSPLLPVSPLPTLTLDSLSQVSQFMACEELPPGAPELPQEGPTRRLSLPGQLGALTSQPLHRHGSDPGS

| SMILES | IC50 [1] [nM] | Ratio IC50 [2] | IC50 [3] [nM] | other results |
| --- | --- | --- | --- | --- |
| COc1cc(/C=C2\CCCN3C2=NOC3(CO)c2cccc(F)c2)ccc1-n1cnc(C)c1 (single isomer, unassigned) | 26 | 280 | 7160 |  |
| COCCCN1C(/C=C/c2ccc(-n3cnc(C)c3)c(OC)c2)=NOC1(C)c1ccc(F)cc1 (racemic) | 187 |  |  | IC50 [4]: 2000 nM; Stability [5]: Unstable; Stability [6]: Stable |
| CNC[C@]1(c2ccc(F)cc2)ON=C2/C(=C/c3ccc(-n4cnc(C)c4)c(OC)c3)CCCN21 | 191 | > 105 | > 20000 |  |
| COc1cc(/C=C2\CCCN3C2=NOC3(CO)c2ccc(C#N)cc2)ccc1-n1cnc(C)c1 (single isomer, unassigned) | 117 | > 171 | > 20000 |  |
| c1ccc(-n2ccnc2)cc1 |  |  |  | pKa [7]: 5.1 |
| COc1cc(/C=C2\CCCN(C3(c4ccccc4)CCOCC3)C2=O)ccc1-n1cnc(C)c1 | 56 |  |  |  |
| COc1cc(/C=C2\CCCN3C2=NO[C@]3(CNCCO)c2ccc(F)cc2)ccc1-n1cnc(C)c1 | 80 | > 250 | > 20000 |  |
| COc1cc(/C=C2\CCCN3C2=NOC3(CO)c2cncc(F)c2)ccc1-n1cnc(C)c1 (single isomer, unassigned) | 106 | > 189 | > 20000 |  |
| COCCCN(C(=O)/C=C/c1ccc(-n2cnc(C)c2)c(OC)c1)c1cccc2ccccc12 | 60 |  |  |  |
| COc1cc(/C=C2\CCCN3C2=NO[C@]3(CN(C)C(C)=O)c2ccc(F)cc2)ccc1-n1cnc(C)c1 | 199 | > 101 | > 20000 |  |
| COc1cc(/C=C2\CCCN3C2=NO[C@]3(CN(C)C)c2ccc(F)cc2)ccc1-n1cnc(C)c1 | 196 | 96 | 18800 |  |
| COc1cc(/C=C2\CCCN3C2=NOC[C@@H]3c2cc(F)c(F)c(F)c2)ccc1-n1cnc(C)c1.Cl |  |  |  | solubility [8]: > 100 mM; logD [9]: 5.29 |
| COc1cc(/C=C2\CCCN3C2=NOC3(CO)c2ccc(F)cn2)ccc1-n1cnc(C)c1 (single isomer, unassigned) | 103 | 192 | 19700 |  |
| COc1cc(/C=C2\CCCN3C2=NOC[C@@H]3c2cc(F)c(F)c(F)c2)ccc1-n1cnc(C)c1 |  |  |  | Activity [10]: Dose-dependent effect; Activity [11]: Dose-dependent effect; Activity [12]: Dose-dependent effect; Activity [13]: Active; Activity [14]: Dose-dependent effect; Activity [15]: Active; Activity [16]: Dose-dependent effect; Activity [17]: Dose-dependent effect; Activity [18]: Dose-dependent effect; Activity [19]: Dose-dependent effect; Activity [20]: Active; Activity [21]: Dose-dependent effect; Activity [22]: Dose-dependent effect; Activity [23]: Active; Activity [24]: Dose-dependent effect; Activity [25]: Active; Activity [26]: Dose-dependent effect |
| COC[C@]1(c2ccc(F)cc2)ON=C2/C(=C/c3ccc(-n4cnc(C)c4)c(OC)c3)CCCN21 | 122 | 144 | 17500 |  |
| COc1cc(/C=C2\CCCN3C2=NOC3(CO)c2ccccc2)ccc1-n1cnc(C)c1 (single isomer, unassigned) | 96 | 33 | 3210 |  |
| COc1cc(/C=C2\CCCN3C2=NO[C@@]3(c2ccc(F)cc2)[C@@H](C)O)ccc1-n1cnc(C)c1 | 46 | 350 | 16200 |  |
| COc1cc(/C=C2\CCCN3C2=NO[C@@]3(CO)c2ccc(F)cc2)ccc1-n1cnc(C)c1 | 7640 |  | > 20000 | Stability [27]: Stable; pKa [7]: 5.8 |
| COc1cc(/C=C2\CCCN([C@@H](C)c3ccc(F)cc3)C2=O)ccc1-n1cnc(C)c1 |  |  |  | Activity [28]: 44%; Activity [29]: Non-toxic; Activity [30]: 55%; Papp A→B [31]: 57.9 ×10⁻⁶ cm/s; IC50 [32]: 1200 nM |
| COc1cc(/C=C2\CCCN3C2=NO[C@@]3(c2ccc(F)cc2)[C@H](C)O)ccc1-n1cnc(C)c1 | 89 | > 225 | > 20000 |  |
| COc1cc(/C=C2\CCCN3C2=NOC3(CO)c2ccccc2F)ccc1-n1cnc(C)c1 (single isomer, unassigned) | 53 | 189 | 10100 |  |
| COc1cc(/C=C2\CCCN3C2=NOC3(CO)c2cc(F)cc(F)c2)ccc1-n1cnc(C)c1 (single isomer, unassigned) | 21 | 316 | 6750 |  |
| COc1cc(/C=C2\CCCN3C2=NO[C@]3(CN(C)S(C)(=O)=O)c2ccc(F)cc2)ccc1-n1cnc(C)c1 | 72 | 269 | 19300 |  |
| COc1cc(/C=C2\CCCN3C2=NOC3(CO)c2cc(F)c(F)c(F)c2)ccc1-n1cnc(C)c1 (single isomer, unassigned) | 15 | 1020 | 15800 |  |

— ChEMBL document CHEMBL1949526, “Cyclic hydroxyamidines as amide isosteres: discovery of oxadiazolines and oxadiazines as potent and highly efficacious γ-secretase modulators in vivo” (J Med Chem, 2012)
